The structures appear in SMILES notation.

This note sets out measurements from ChEMBL document CHEMBL1125385, “Novel inhibitors of prolyl 4-hydroxylase. 2. 5-Amide substituted pyridine-2-carboxylic acids” (J Med Chem, 1992).

This assay relates to Prolyl 4-hydroxylase (Gallus gallus). Description: Inhibition of Prolyl 4-hydroxylase activity in cultured embryonic chick tendon cells; NA=Not active.
Turning to `COc1ccccc1NC(=O)c1ccc(C(=O)O)nc1`, the IC50 entry is given as “Not Active”.

In the case of `CN(C)c1ccc(NC(=O)c2ccc(C(=O)O)nc2)cc1`, the IC50 entry is listed as “Not Active”.

For `Cc1ccc(NC(=O)c2ccc(C(=O)O)nc2)cc1`, the IC50 entry was “Not Active”.

Turning to `O=C(Nc1ccccc1Cl)c1ccc(C(=O)O)nc1`, the IC50 result is given as “Not Active”.

On to `O=C(O)c1ccc(NC(=O)c2ccccc2F)cn1`, for which the IC50 entry is given as “Not Active”.

As for `CN(C)c1ccc(C(=O)Nc2ccc(C(=O)O)nc2)cc1`, the IC50 result is “Not Active”.

For the compound `COc1ccc(NC(=O)c2ccc(C(=O)O)nc2)c(OC)c1`, the IC50 result is given as “Not Active”.

In the case of `CCOc1ccc(C(=O)Nc2ccc(C(=O)O)nc2)cc1`, the IC50 entry was “Not Active”.
